Data published in patent publication US9724334B1, “Method for treating a neurodegenerative disease or depression comprising administering derivatives of 2-amino-2-(1-dodecyl-1H-1,2,3-triazol-4-yl)propane-1,3-diol” (Kyungpook National University Industry-Academic Cooperation …, priority 2016, dated 2017).

Experiments:
[1] = biological target: T1, ASM (acid sphingomyelinase) (Mus musculus, UniProt Q04519); assay: ASM concentration levels in plasma and brain tissue of APP/PS1 mice after feeding via drinking water; format: in vivo; details: 100 mg/kg/day via drinking water
T1 construct: from tissue; host or cells: plasma and brain tissue of APP/PS1 transgenic mice (C57BL/6 background)
T1 sequence (Q04519 45-627): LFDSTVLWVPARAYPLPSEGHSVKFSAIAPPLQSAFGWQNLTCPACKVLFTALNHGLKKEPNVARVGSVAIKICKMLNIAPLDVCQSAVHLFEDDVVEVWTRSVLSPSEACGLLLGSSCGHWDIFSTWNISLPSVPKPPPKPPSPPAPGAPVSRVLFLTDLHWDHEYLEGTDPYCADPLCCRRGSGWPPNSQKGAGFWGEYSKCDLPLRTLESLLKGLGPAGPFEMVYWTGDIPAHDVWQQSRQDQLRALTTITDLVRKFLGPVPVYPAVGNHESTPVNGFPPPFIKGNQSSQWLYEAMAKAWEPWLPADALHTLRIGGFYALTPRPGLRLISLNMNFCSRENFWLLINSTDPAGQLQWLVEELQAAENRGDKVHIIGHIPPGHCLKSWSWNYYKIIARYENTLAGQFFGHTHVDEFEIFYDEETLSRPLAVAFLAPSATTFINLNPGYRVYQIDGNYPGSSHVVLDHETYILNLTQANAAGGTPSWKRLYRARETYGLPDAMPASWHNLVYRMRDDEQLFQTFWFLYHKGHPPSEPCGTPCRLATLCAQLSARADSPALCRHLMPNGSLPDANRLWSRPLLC
From the text: IACUC (Kyungpook National University Institutional Animal Care and Use Committee) approved the present mouse experiment. A transgenic mouse line overexpressing APPswe (hAPP695swe) or PS1 (presenilin-1M146V) was used based on C57BL/6 mouse (Charles River, UK) (hereinafter, APP mouse: APPswe-overexpressing mouse, PS1 mouse: presenilin-1M146V overexpressing mouse; GlaxoSmithKline). To confirm the therapeutic effect of the novel ASM inhibitory compounds, the novel ASM inhibitory compound or AMI were fed via drinking water at a dose of 100 mg/kg/day to mice at 5.5 months of age. Three months after the feeding, behavioral analysis on the mice was performed, followed by sampling of mouse brain tissues (FIG. 3). The concentration levels of ASM were measured as follows. Specifically, a microliter mouse plasma, brain tissue and 3 μl of fibroblast samples were mixed with ASM activity buffer and stored at 37° C. 114 μl of ethanol was added to terminate the hydrolysis reaction, followed by centrifugation. 30 μl of the supernatant was transferred to a glass vial, of which 5 μl was applied to the UPLC system. The ASM concentration levels were quantified by comparison with Bodipy (aminoacetaldehyde) conjugated with sphingomyelin and ceramide. Extraction and quantification of the sphingomyelin and ceramide were performed by extracting lipids from known method samples and resuspending the dried lipid extract in 25 μl of 0.2% Igepal CA-630 (Sigma-Aldrich). Each lipid level was quantified using the UPLC system. Using an experimental animal model APP/PS1 mouse for Alzheimer's disease patients, ASM concentration levels in plasma and brain tissues were measured after administration of AMI, which is the most widely used as an ASM inhibitor, and the novel ASM inhibitory compound of the Chemical Formula 2.

[2] = tested on: APP/PS1 mice; assay: Astrocytes (GFAP immunofluorescence) in cerebral cortex of APP/PS1 mice; format: in vivo, mouse; details: 100 mg/kg/day via drinking water, versus APP/PS1 mice
Description: (§1) To confirm the therapeutic effect of the novel ASM inhibitory compounds, the novel ASM inhibitory compound or AMI were fed via drinking water at a dose of 100 mg/kg/day to mice at 5.5 months of age. Three months after the feeding, behavioral analysis on the mice was performed, followed by sampling of mouse brain tissues (FIG. 3).
(§2) After fixing the cerebrum and hippocampus of the test mice, 0.5% thioflavin S (Sigma-Aldrich), anti-20G10 antibodies (Mouse, 1:1000) against Aβ, 42 and anti-G30 antibodies (rabbit, 1:1000) against Aβ, 40, anti-GFAP antibodies (rabbit, 1:500, DAKO) were cultured together. The above sites were analyzed using a laser scanning confocal microscope equipped with Fluoview SV1000 imaging software (Olympus FV1000, Japan) or an Olympus BX51 microscope. Percentage of area of stained area to total tissue area was quantified and analyzed using Metamorph software (Molecular Devices).
(§3) In order to determine the effect of the novel ASM inhibitory compounds according to the present invention on the change of nerve inflammation in the APP/PS1 mice, the present inventors observed a change in astrocytes of their brains.

[3] = biological target: T2, ASM (acid sphingomyelinase) (Homo sapiens, UniProt P17405); assay: ASM activity in fibroblasts derived from Alzheimer's disease patients (PS1 fibroblasts); format: cell-based; parameters: dose or concentration left out as unconfirmed
T2 construct: fibroblasts (PS1 fibroblasts) derived from Alzheimer's disease patients, followed by the measurement of the change of ASM activity; host or cells: human fibroblast cell lines (PS1, from Alzheimer's disease patients)
T2 sequence (P17405 47-631): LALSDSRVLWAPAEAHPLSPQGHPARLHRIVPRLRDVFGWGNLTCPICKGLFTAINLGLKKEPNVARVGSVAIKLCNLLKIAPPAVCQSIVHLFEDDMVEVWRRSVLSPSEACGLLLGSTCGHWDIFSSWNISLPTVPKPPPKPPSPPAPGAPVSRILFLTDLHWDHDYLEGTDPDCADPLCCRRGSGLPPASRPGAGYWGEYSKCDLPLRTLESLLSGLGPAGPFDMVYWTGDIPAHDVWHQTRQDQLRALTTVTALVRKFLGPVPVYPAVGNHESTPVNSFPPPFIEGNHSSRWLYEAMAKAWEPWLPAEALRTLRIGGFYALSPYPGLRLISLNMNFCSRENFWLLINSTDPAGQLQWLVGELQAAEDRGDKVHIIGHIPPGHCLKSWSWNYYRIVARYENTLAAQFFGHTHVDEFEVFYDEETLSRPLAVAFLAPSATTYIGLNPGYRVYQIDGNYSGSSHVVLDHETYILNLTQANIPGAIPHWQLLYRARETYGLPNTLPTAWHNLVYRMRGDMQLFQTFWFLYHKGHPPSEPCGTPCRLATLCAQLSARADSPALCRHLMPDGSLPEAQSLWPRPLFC
Description: Human fibroblast cell lines (normal and PS1) were obtained from Coriell Institute and cultured in DMEM containing 15% FBS under the condition of 5% CO2 at 37° C. Subsequently, the cell lines were treated with the ASM inhibitory compound of the Chemical Formula 1, amitriptyline (AMI) and FTY720, followed by measuring the change of ASM activity. The concentration levels of ASM were measured as follows. Specifically, a microliter mouse plasma, brain tissue and 3 μl of fibroblast samples were mixed with ASM activity buffer and stored at 37° C. 114 μl of ethanol was added to terminate the hydrolysis reaction, followed by centrifugation. 30 μl of the supernatant was transferred to a glass vial, of which 5 μl was applied to the UPLC system. The ASM concentration levels were quantified by comparison with Bodipy (aminoacetaldehyde) conjugated with sphingomyelin and ceramide. Extraction and quantification of the sphingomyelin and ceramide were performed by extracting lipids from known method samples and resuspending the dried lipid extract in 25 μl of 0.2% Igepal CA-630 (Sigma-Aldrich). Each lipid level was quantified using the UPLC system. In order to confirm the ASM inhibitory effect of the compound developed according to the present invention, the ASM inhibitory compound of the Chemical Formula 2, AMI and FTY720 were treated […] concentration, respectively, in the fibroblasts (PS1 fibroblasts) derived from Alzheimer's disease patients, followed by the measurement of the change of ASM activity.

[4] = tested on: APP/PS1 mice; assay: Western blotting of autophagy-related proteins (LC3, Beclin-1, cathepsin D, p62) in brain tissue of APP/PS1 mice; format: in vivo, mouse
Description: as §1
Expression of the following genes was analyzed using Western blotting. First, antibodies against LC3, Becklin-1, p62 (All of them were purchased from Cell Signaling Technologies), Cathepsin D (R&D systems) and β-actin (Santa Cruz) were used, while densitometric quantification was performed using ImageJ Software (US National Institutes of Health).
In order to verify the mechanism of the ASM inhibitory compound of the Chemical Formula 2 in the autophagy-related pathways upon its administration, the conversion of LC3-I into LC3-II, and the expression levels of Beclin-1, cathepsin D and p62 in the brain tissue samples of the WT mice, APP/PS1 mice, and APP/PS1 mice treated with the ASM inhibitory compound of the Chemical Formula 2 which were 9.5 months old, respectively, were confirmed by Western blotting experiments.

[5] = tested on: APP/PS1 mice; assay: Fear conditioning test in APP/PS1 mice; format: in vivo, mouse; details: 100 mg/kg/day via drinking water
Description: as §1
(§4) Morris water maze (MWM) and fear conditioning experiments were conducted to identify potential effects on learning and memory. For MWM, the mice were learned the task four times a day for 10 days, followed by the removal of the platform at the 11th day and subsequently a probe trial. On the first day of the fear conditioning, the mice were placed in the conditioning chamber and subjected to sound stimulation (10 kHz, 70 dB) and electrical stimulation (0.3 mA, 1s). On the second day, their memory was checked without stimulation in the same conditioning chamber as on the first day. On the third day, memory tests were conducted for fear when only sound stimulation was given in another conditioning chamber. Open field tests and dark & light tests were conducted to assess activity and anxiety. In the open field test, the mice were placed in a square box for 10 minutes to measure their overall activity and time spent wandering the wall and center. […]

[6] = tested on: APP/PS1 mice; assay: Amyloid-β deposition in brain of APP/PS1 mice (thioflavin S staining, Aβ40 and Aβ42 immunofluorescence); format: in vivo, mouse; details: 100 mg/kg/day via drinking water
From the text: IACUC (Kyungpook National University Institutional Animal Care and Use Committee) approved the present mouse experiment. A transgenic mouse line overexpressing APPswe (hAPP695swe) or PS1 (presenilin-1M146V) was used based on C57BL/6 mouse (Charles River, UK) (hereinafter, APP mouse: APPswe-overexpressing mouse, PS1 mouse: presenilin-1M146V overexpressing mouse; GlaxoSmithKline).
as §1, §2
In order to confirm the effect of the novel ASM inhibitory compound of the Chemical Formula 2 on the lesion of Alzheimer's disease, the ASM inhibitory compound of the Chemical Formula 2 and AMI were administered orally for four months, respectively, as shown in FIG. 3.
To begin with, the profile of Aβ of Alzheimer's disease was identified. First, according to known methods in the art, the cerebral cortex and hippocampus of the mice were stained with thioflavin S (ThioS), confirming the fibrillary amyloid-β deposition. In addition, amyloid-β deposition was confirmed by carrying out the Aβ40 and Aβ42 immunofluorescence.

[7] = tested on: APP/PS1 mice; assay: Open field test and dark & light test (activity and anxiety) in APP/PS1 mice; format: in vivo, mouse; details: 100 mg/kg/day via drinking water, versus APP/PS1 mice
Description: as §1, §4

[8] = tested on: APP/PS1 mice; assay: Morris water maze (MWM), learning and memory in APP/PS1 mice; format: in vivo, mouse; details: 100 mg/kg/day via drinking water
Description: as §1
Morris water maze (MWM) and fear conditioning experiments were conducted to identify potential effects on learning and memory. For MWM, the mice were learned the task four times a day for 10 days, followed by the removal of the platform at the 11th day and subsequently a probe trial. On the first day of the fear conditioning, the mice were placed in the conditioning chamber and subjected to sound stimulation (10 kHz, 70 dB) and electrical stimulation (0.3 mA, 1s). On the second day, their memory was checked without stimulation in the same conditioning chamber as on the first day. On the third day, memory tests were conducted for fear when only sound stimulation was given in another conditioning chamber. Open field tests and dark & light tests were conducted to assess activity and anxiety. In the open field test, the mice were placed in a square box for 10 minutes to measure their overall activity and time spent wandering the wall and center. In the dark & light test, the mice were placed in a rectangular box composed of a dark box and a bright box for 10 minutes to measure the time spent in each box, the number of round trips, and the time when the mice entered the bright box for the first time.
In order to determine the potential effect of the novel ASM inhibitory compound of the present invention on learning and cognition in the animal models of Alzheimer's disease, the MWM (Morris water maze) and the fear conditioning test were performed, respectively.

[9] = tested on: APP/PS1 mice; assay: Real-time quantitative PCR of inflammatory cytokines (TNF-α, IL-1b, IL-6) in brain of APP/PS1 mice; format: in vivo, mouse; details: mRNA, cerebral cortex, 100 mg/kg/day via drinking water, versus wild-type
Description: as §1
Real-time quantitative PCR was used to measure the expression levels of inflammatory cytokines (TNF-α, IL-1b, and IL-6). Total RNAs were extracted from brain tissues using RNeasy Plus mini kit (Qiagen, Korea, Ltd.), while cDNAs were synthesized from 5 μg of total RNAs using a kit from Clontech (Mountain View, Calif.). Also, using Corbett research RG-6000 real-time PCR instrument, PCR was performed at 95° C. for 10 minutes; 95° C. for 10 seconds; 58° C. for 15 seconds; 72° C. for 20 seconds as one cycle, while real-time quantitative PCR was performed in which 40 cycles were repeated.
as §3

[10] = 9.5 month-old APP/PS1 mice, versus unfed APP/PS1 mice
[11] = 9.5 months old APP/PS1 mice, treated versus untreated
[12] = brain tissue immunofluorescence, versus APP/PS1 mice

- ASM concentration level in brain tissues [1, 10]: remarkably low
- ASM concentration level in plasma [1, 10]: remarkably low
- change of ASM activity ([3]; PS1 fibroblasts with increased ASM activity, versus untreated PS1 fibroblasts): markedly reduced
Compound: CCCCCCCCCCCCn1cc(C(N)(CO)CO)nn1 [Chemical Formula 2, 2-amino-2-(1-dodecyl-1H-1,2,3-triazol-4-yl)propane-1,3-diol]
- ASM inhibition in plasma and brain tissues compared with AMI ([1]; APP/PS1 mice): more significantly effective in inhibiting ASM activity than AMI
- activity of astrocytes (GFAP) [2]: significantly decreased
- ASM inhibitory effect compared with the other substances (AMI, FTY720) ([3]; PS1 fibroblasts): more remarkably effective in inhibiting ASM activity than the other substances
- conversion of LC3-I to LC3-II [4, 11]: decreased
- expression level of cathepsin D [4, 11]: decreased
- expression level of p62 [4, 11]: decreased
- expression of Beclin-1 ([4]; 9.5 months old, WT, APP/PS1 and treated APP/PS1 mice compared): little difference
- memory in the fear conditioning test (contextual and tone tasks) [5]: effect of improving the memory
- amyloid-β deposition compared with mice treated with AMI [6]: more remarkably reduced
- Aβ40 deposition [6, 12]: significantly lower
- Aβ42 deposition [6, 12]: significantly lower
- fibrillary Aβ deposition (thioflavin S) ([6]; cerebral cortex and hippocampus, versus APP/PS1 mice): significantly lower
- activity and anxiety [7]: significantly improved
- cognitive improvement compared with AMI [8]: more pronounced
- spatial memory, cognitive and memory formation disability ([8]; versus unfed APP/PS1 mice): improved
- gene expression of IL-1b [9]: restored to their normal levels
- gene expression of IL-6 [9]: restored to their normal levels
- gene expression of TNF-α [9]: restored to their normal levels
